# Experimental data: US20220008425A1, “Pharmaceutical Composition for Treating B-Cell Lymphoma” (FUNDAN UNIVERSITY SHANGHAI CANER CENTER, priority 2018, published 2022)
# Entries after “also recorded” stand apart in the source; their conditions may differ.
# Columns and labels:
# [1] = test system: AKT phosphorylation, SOX2, CDK6 and CSC-associated molecules in LY8-RCHO cells; test: Immunoblot analysis; format: cell-based, human
# [2] = test system: CD20 and mCRPs (CD46, CD55, CD59) in RCHO-resistant LY8 cells; test: FACS analysis of membrane expression of CD46, CD55, CD59 and CD20; format: cell-based, human
# Experimental: (§1) After being washed with PBS, cells were incubated with fluorescein-conjugated antibody for 30 minutes, followed by washing and resuspension of cells in PBS. Flow cytometry analysis was performed on a cytomics FC500 MPL instrument (Beckman Coulter, Inc., Brea, Calif.) and FlowJo software (Ashland, Inc., OR) was used for analysis. Cells were then sorted according to their relative fluorescence intensity by using a MoFlo XDP sorter (Beckman Coulter Inc., Brea, Calif.).
# [3] = test system: CD20 and mCRPs (CD46, CD55, CD59) in RCHO-resistant NU-DUL-1 cells; test: as above; format: cell-based, human
# Experimental: as §1
# NU-DUL-1-RCHO cells [4] = test: EdU cell proliferation assay; format: cell-based, human; settings: 1 μM
# Experimental: (§2) RCHO-resistant DLBCL cells were pretreated with duvelisib, abemaciclib, or AZD4547 at a concentration of 1 μM for 48 or 120 hours prior to EdU assay. For 120 hours of the study, the medium was replaced with a fresh medium containing 1 μM of inhibitor at 48 hours. EdU cell proliferation assay was performed by using a cell-light EdU Apollo643 in vitro flow cytometry kit (RiboBio Inc., Guangzhou, China) according to its instructions. Next, we assayed EdU staining positive cells on a Cytomics FC500 MPL flow cytometer (Beckman Coulter, Brea, Calif.).
# LY8-RCHO cells [5] = test: EdU cell proliferation assay; format: cell-based, human; settings: 1 μM
# Experimental: as §2
# NU-DUL-1-RCHO-Luc cells = test: Transplantation model, bioluminescence tumor growth and survival; format: in vivo; settings: SCID mice bearing NU-DUL-1-RCHO-Luc cells
# From the text: Construction of a transplantation model: we transduced LY8-RCHO cells and NU-DUL-1-RCHO cells with lentiviruses overexpressing the firefly luciferase gene to generate stable cells expressing firefly luciferase, referred to as LY8-RCHO-Luc cells and NU-DUL-1-RCHO-Luc cells, respectively. 8-week-old female SCID mice were purchased from SLAC (Shanghai laboratory animal center). The LY8-RCHO-Luc cells and NU-DUL-1-RCHO-Luc cells were resuspended in PBS prior to intraperitoneal injection of 1.5×10^7 cells per mouse. After intraperitoneal injection of the LY8-RCHO-Luc cells, mice were randomized into 6 groups (7 mice in every group) and given saline, R-CHOP, duvelisib, abemaciclib, R-CHOP+duvelisib, and R-CHOP+abemaciclib, respectively. Mice inoculated with the NU-DUL-1-RCHO-Luc cells were randomly divided into 6 groups (7 mice in every group), and were given saline, R-CHOP, duvelisib, AZD4547, R-CHOP+duvelisib, and R-CHOP+AZD4547, respectively. The drug dosing method based on one course of clinical use is shown in Table 1; the R-CHOP regimen was clinically used to treat DLBCL, while duvelisib, abemaciclib, and AZD4547 were tested in clinical trials (associated NCT numbers are NCT02576275, NCT01739309, and […], respectively). Tumor growth was monitored by bioluminescence at day 50 and day 90 after inoculation. For in vivo luminescence imaging, D-luciferin (Promega, Madison, Wis.) was intraperitoneally injected into mice (150 mg/kg). After 10 minutes, the mice were anesthetized by intraperitoneal injection of pentobarbital (50 mg/kg) and then their bioluminescence intensity was examined by using an In Vivo MS FX PRO system (Bruker Corporation, Billerica, Mass.). Luminescence images were captured with an exposure time of 30 seconds and the signal intensity of the tumor was measured by using Bruker MI software. The survival time of each mouse was recorded. Surviving mice were euthanized and dissected 120 days after inoculation and no intraperitoneal tumors were found. Tumor tissue was collected from moribund mice and fixed with 4% formalin. All animal experiments were performed in strict accordance with the experiment protocol approved by the animal ethics committee of Shanghai school of medicine of Fudan university.
# NU-DUL-1-RCHO cells [6] = settings: 48 hours
# Experimental: (§3) Further, we constructed LY8 and NU-DUL-1 cells resistant to chemotherapeutic drugs. Briefly, LY8-ORI and NU-DUL-1-ORI cells were treated with doxorubicin (Selleck Chemicals, Houston, Tex.) and vincristine (Selleck Chemicals, Houston, Tex.) at a clinical ratio of 50:1.4 by increasing the concentration. […] These cells were then treated with 2 μg/mL of 4-hydroperoxycyclophosphamide (4-HC) (Santa Cruz Biotechnology, Inc., Santa Cruz, Calif.) every 21 days for 3 cycles. The obtained CHO-resistant cells are referred to as LY8-CHO and NU-DUL-1-CHO, respectively. CHO-resistant cells were treated with doxorubicin, vincristine, and 4-HC every 22 days to maintain drug tolerance to CHO. […] To maintain RCHO resistance, LY8-RCHO cells and NU-DUL-1-RCHO cells were treated with 32 μg/mL of rituximab containing 20% (v/v) of NHS every 22 days, followed by treatment with doxorubicin, vincristine, and 4-HC. After 48 hours of treatment with doxorubicin, vincristine and 4-HC, drug resistance to CHO and RCHO was determined by a series of CCK-8 assays.
# (§4) Cells were seeded in a 96-well plate at a density of 1×10^4/100 μL/well. Cells were pretreated with IPI-145, abemaciclib, AZD4547, PF-573228, R788, or saracatinib at increasing concentrations with or without CHO for 48 hours prior to performing CytoTox-Glo™ cytotoxicity assay. We performed cytotoxicity assay by using a CytoTox-Glo™ cytotoxicity assay kit (Promega Inc., Madison, Wis.) according to their instructions. Briefly, 50 μL of CytoTox-Glo™ cytotoxicity assay reagent was added to all wells, mixed by orbital shaking, and then incubated for 15 minutes at room temperature. Luminescence of experimental dead cells was detected with a Synergy HT microplate reader (BioTek, Biotek Winooski, Minn.), wherein 50 μL of lysate was added to all wells, mixed and incubated for 15 minutes at room temperature prior to detection of total luminescence. Cytotoxicity was calculated according to the following formula: Cytotoxicity (%)=Experimental dead cell luminescence/Total luminescence×100%.
# LY8-RCHO cells [7] = settings: 48 hours
# Experimental: as §3, §4
# [8] = regimen or inhibitor used alone, dosing per Table 1
# [9] = inhibitor alone at increasing concentrations
# [10] = inhibitor at increasing concentrations with CHO
smiles,measurement,setting,value
C[C@H](Nc1ncnc2[nH]cnc12)c1cc2cccc(Cl)c2c(=O)n1-c1ccccc1 [duvelisib],AKT phosphorylation and expression of SOX2 and CDK6,[1],"reduces the expression of SOX2 and CDK6 by inhibiting AKT phosphorylation; also recorded: prevented phosphorylation of AKT and induced degradation of SOX2, thereby reducing expression of CDK6"
same,"levels of CSC-associated molecules (OCT4, NANOG, KLF4, c-MYC, CD34, CD133)",[1],significantly reduced levels of CSC-associated molecules in the RCHO-resistant cells
same,membrane expression of CD20,[2],significantly reduced
same,"membrane expression of the other three mCRPs (CD46, CD55, CD59)",[2],the other three mCRPs did not
same,membrane expression of CD20,[3],significantly reduced
same,"membrane expression of the other three mCRPs (CD46, CD55, CD59)",[3],the other three mCRPs did not
same,cell proliferation (EdU incorporation),NU-DUL-1-RCHO cells [4]; 48 hours,strongly prevented proliferation of LY8-RCHO and NU-DUL-1-RCHO cells
same,cell proliferation (EdU incorporation),NU-DUL-1-RCHO cells [4]; 120 hours,significantly promoted proliferation of cells at 120 hours
same,cell proliferation (EdU incorporation),LY8-RCHO cells [5]; 48 hours,strongly prevented proliferation of LY8-RCHO and NU-DUL-1-RCHO cells
same,cell proliferation (EdU incorporation),LY8-RCHO cells [5]; 120 hours,significantly promoted proliferation of cells at 120 hours
same,tumor growth (total photon flux),"NU-DUL-1-RCHO-Luc cells; inhibitor combined with R-CHOP, dosing per Table 1",completely inhibit tumor growth
same,survival time,"NU-DUL-1-RCHO-Luc cells; inhibitor combined with R-CHOP, experiment ended at day 120",prolong the survival time to the end of the experiment at day 120
same,survival time,NU-DUL-1-RCHO-Luc cells; [8],had no efficacy on tumor growth and the survival time
same,tumor growth (total photon flux),NU-DUL-1-RCHO-Luc cells; [8],had no efficacy on tumor growth and the survival time
same,"cytotoxicity (induction of cell death), inhibitor used alone",NU-DUL-1-RCHO cells [6]; [9],only slightly somewhat cytotoxic; also recorded: negligible effect on direct induction of cell death
same,"reversal of resistance to CHO (cytotoxicity of CHO), inhibitor co-treated with CHO",NU-DUL-1-RCHO cells [6]; [10],significantly enhanced the cytotoxicity of CHO in the two RCHO-resistant cell lines in a dose-dependent manner; also recorded: significantly reversed resistance of RCHO-resistant cells to CHO
same,"cytotoxicity (induction of cell death), inhibitor used alone",LY8-RCHO cells [7]; [9],only slightly somewhat cytotoxic; also recorded: negligible effect on direct induction of cell death
same,"reversal of resistance to CHO (cytotoxicity of CHO), inhibitor co-treated with CHO",LY8-RCHO cells [7]; [10],significantly enhanced the cytotoxicity of CHO in the two RCHO-resistant cell lines in a dose-dependent manner; also recorded: significantly reversed resistance of RCHO-resistant cells to CHO
